Data published in paper PMC5522996, “Big conductance calcium‐activated potassium channel openers control spasticity without sedation” (British Journal of Pharmacology, 2017).
Like-named read-outs stand apart in the source and are kept apart here.

How the values were obtained:
WP2uvvA = assay: Bacterial reverse mutation, revertants per plate; assay type: cell-based, Escherichia coli
Method: Strain of Organism Treatment Dose Revertants per plate
First Mutation without Metabolic Stimulation
Second Mutation without Metabolic Stimulation
VSN16R was incubated at various concentrations with either TA1535, TA1537, TA98 and TA100 strains of Salmonella typhimurium, which carry mutations in genes involved in histidine synthesis, and WP2uvvA Escherichia coli. The bacteria are spread on agar plates with limiting histidine content and incubated for 48 h. The number of histidine gene negative to positive revertants was assessed in two experiments. The results represent the mean ± SD. n=3/group. This was performed by Charles

H1 = biological target: T1, H1 (Homo sapiens, UniProt P35367); assay: Receptor binding profile of VSN16R; conditions: 10µM VSN16R
T1 construct: purchased Cerep; Chantest; DiscoveRx; Multispan; MDS Pharma Services

CB2 = biological target: T2, CB2 (Homo sapiens, UniProt P34972); assay: Receptor binding profile of VSN16R
T2 construct: purchased Cerep; Chantest; DiscoveRx; Multispan; MDS Pharma Services

EDG2 = biological target: T3, EDG2 (Homo sapiens, UniProt Q92633); assay: Receptor binding profile of VSN16R; conditions: 10µM VSN16R
T3 construct: purchased Cerep; Chantest; DiscoveRx; Multispan; MDS Pharma Services

α1(non-selective) = assay: Receptor binding profile of VSN16R; parameters: species or system human; conditions: 10µM VSN16R
NK3 = biological target: T4, NK3 (Homo sapiens, UniProt P29371); assay: Receptor binding profile of VSN16R; conditions: 10µM VSN16R
T4 construct: purchased Cerep; Chantest; DiscoveRx; Multispan; MDS Pharma Services

NT1 = biological target: T5, NT1 (Homo sapiens, UniProt P30989); assay: Receptor binding profile of VSN16R; conditions: 10µM VSN16R
T5 construct: purchased Cerep; Chantest; DiscoveRx; Multispan; MDS Pharma Services

5-HT2A = biological target: T6, 5-HT2A (Homo sapiens, UniProt P28223); assay: Receptor binding profile of VSN16R; conditions: 10µM VSN16R
T6 construct: purchased Cerep; Chantest; DiscoveRx; Multispan; MDS Pharma Services

H2 = biological target: T7, H2 (Homo sapiens, UniProt P25021); assay: Receptor binding profile of VSN16R; conditions: 10µM VSN16R
T7 construct: purchased Cerep; Chantest; DiscoveRx; Multispan; MDS Pharma Services

Pharmacokinetics in rats = assay type: in vivo, rat
Method: The stability of compounds when subjected to hepatic and plasma degradation was assessed in vitro by Inpharmatica, Cambridge, UK. Compounds (1 μM) were incubated with either pooled mouse liver microsomes (0.1 mg protein mL^−1) or pooled mouse plasma at 37°C for 0, 5, 10, 20 and 40 min before termination with acetonitrile containing warfarin as an analytical internal standard. Samples were centrifuged, and the resultant supernatant analysed for parent compound. The mass responses at baseline were taken as the 100% reference values against which the disappearance of the compound was measured. The natural log of the % remaining values was used to generate linear plots of disappearance of the compounds. Half‐life values were calculated from the slope of these plots. Hepatocyte metabolism was assessed by Cyprotex, Macclesfield, and 10 μM VSN16R was incubated with primary mouse, rat, monkey (Macaque) and human hepatocytes for 1 h, and the presence of metabolites was assessed using liquid […] mass spectroscopy. The stability of VSN16R was assessed in vivo by Inpharmatica, Cyprotex and Charles Rivers, Cambridge. Blood (plasma) samples were obtained prior to and 5 min to 24 h after drug administration of 2–5 mg·kg^−1 i.v. or 5 mg·kg^−1 p.o. VSN16R into outbred mice and rats (n = 3 per time point). In addition, plasma, brain and spinal cord samples were obtained from ABH with spastic EAE. Immediately after blood collection, the brain and spinal cord were removed and then stored at −20°C prior to assay. Tissue samples were weighed, homogenized and centrifuged, and the lysates generated. Brain lysates and plasma were assayed by LC–MS methods by Inpharmatica/Charles Rivers, Cambridge, UK. This was also performed using a Waters Xevo TQ or API4000, AB Sciex mass spectrometer using spiked samples as standards. PK Solutions Software (Summit Research Services, Montrose, CO, USA), AB Sciex Analyst software combined with Thermo Fisher Scientific Watson LIMS processing and reporting software or WinNonLin pharmacokinetic or PK solutions 2.0 software (Summit Research Services, Montrose CO, USA) were used to produce PK parameters. Data are expressed as mean ± SEM. The detection limit of VSN16R was 2 ng·mL^−1 in plasma and brain and 14 ng·mL^−1 in spinal cords. The detection limit of VSN22R was 2 ng·mL^−1 in plasma and 0.1 ng·mL^−1 for VSN44R in plasma. Pharmacokinetics in toxicological samples in rats (n = 6 per group), dogs (n = 6 per group) and humans (n = 6 per group) were performed by Charles Rivers (Edinburgh, UK).

GABA (non-selective) = assay: Receptor binding profile of VSN16R; parameters: species or system human; conditions: 10µM VSN16R
EDG7 = biological target: T8, EDG7 (Homo sapiens, UniProt Q9UBY5); assay: Receptor binding profile of VSN16R; conditions: 10µM VSN16R
T8 construct: purchased Cerep; Chantest; DiscoveRx; Multispan; MDS Pharma Services

[1] = Plasma levels in toxicological studies, rats; assay type: in vivo; conditions: both sexes, Sprague Dawley, rat, po; for concentration at 30 min: 30 min following 50 mg·kg^−1 p.o.
Method: Twenty‐eight day toxicology in rats and dogs for Investigational New Drug filing was performed by Charles Rivers (UK). Reproductive toxicology in rabbits was performed by Charles Rivers (Canada). Pharmacokinetic and/or toxicological doses ranged from 5 to 1000 mg·kg^−1 p.o. in Sprague Dawley male and female rats (n = 6‐26 per group), 50–200 mg·kg^−1 p.o. in male and female Beagle dogs (n = 6 per group) and 100–750 mg·kg^−1 p.o. in female New Zealand white rabbits (n = 9 per group). Results are expressed as mean ± SD.
The stability of compounds when subjected to hepatic and plasma degradation was assessed in vitro by Inpharmatica, Cambridge, UK. Compounds (1 μM) were incubated with either pooled mouse liver microsomes (0.1 mg protein mL^−1) or pooled mouse plasma at 37°C for 0, 5, 10, 20 and 40 min before termination with acetonitrile containing warfarin as an analytical internal standard. Samples were centrifuged, and the resultant supernatant analysed for parent compound. The mass responses at baseline were taken as the 100% reference values against which the disappearance of the compound was measured. The natural log of the % remaining values was used to generate linear plots of disappearance of the compounds. Half‐life values were calculated from the slope of these plots. Hepatocyte metabolism was assessed by Cyprotex, Macclesfield, and 10 μM VSN16R was incubated with primary mouse, rat, monkey (Macaque) and human hepatocytes for 1 h, and the presence of metabolites was assessed using liquid […] mass spectroscopy. The stability of VSN16R was assessed in vivo by Inpharmatica, Cyprotex and Charles Rivers, Cambridge. Blood (plasma) samples were obtained prior to and 5 min to 24 h after drug administration of 2–5 mg·kg^−1 i.v. or 5 mg·kg^−1 p.o. VSN16R into outbred mice and rats (n = 3 per time point). In addition, plasma, brain and spinal cord samples were obtained from ABH with spastic EAE. Immediately after blood collection, the brain and spinal cord were removed and then stored at −20°C prior to assay. […] Data are expressed as mean ± SEM. […]

GABAA = assay: Receptor binding profile of VSN16R; parameters: species or system human; conditions: 10µM VSN16R
Na+ channel (site 2) = assay: Receptor binding profile of VSN16R; parameters: species or system human; conditions: 10µM VSN16R
GlyR = assay: Receptor binding profile of VSN16R; parameters: species or system human; conditions: 10µM VSN16R
NK2 = biological target: T9, NK2 (Homo sapiens, UniProt P21452); assay: Receptor binding profile of VSN16R; conditions: 10µM VSN16R
T9 construct: purchased Cerep; Chantest; DiscoveRx; Multispan; MDS Pharma Services

μ = biological target: T10, μ (Homo sapiens, UniProt P35372); assay: Receptor binding profile of VSN16R; conditions: 10µM VSN16R
T10 construct: purchased Cerep; Chantest; DiscoveRx; Multispan; MDS Pharma Services

D2S = biological target: T11, D2S (Homo sapiens, UniProt P14416); assay: Receptor binding profile of VSN16R; conditions: 10µM VSN16R
T11 construct: purchased Cerep; Chantest; DiscoveRx; Multispan; MDS Pharma Services

CYP450 3A7 = CYP450 3A7 (Homo sapiens, UniProt P24462)
κ = biological target: T12, κ (Homo sapiens, UniProt P41145); assay: Receptor binding profile of VSN16R; conditions: 10µM VSN16R
T12 construct: purchased Cerep; Chantest; DiscoveRx; Multispan; MDS Pharma Services

[2] = biological target: CYP450 1A2 (Homo sapiens)
Source text: IC50 Inhibition of substrate binding
Inhibition of binding of either 3-cyano-7-ethoxycoumarin, dibenzylfluorescein or 7-benzyoxy-4-
(trifluoromethyl) coumarin in human enzyme transfected BTI NN-5B1-4 cells or Sf9 insect cells or
inhibition of dextromethorphan substrate to CYP450 2D6 in liver microsomes.

[3] = first 12 h following p.o. dosing of rats

T2 sequence (P34972 whole entry): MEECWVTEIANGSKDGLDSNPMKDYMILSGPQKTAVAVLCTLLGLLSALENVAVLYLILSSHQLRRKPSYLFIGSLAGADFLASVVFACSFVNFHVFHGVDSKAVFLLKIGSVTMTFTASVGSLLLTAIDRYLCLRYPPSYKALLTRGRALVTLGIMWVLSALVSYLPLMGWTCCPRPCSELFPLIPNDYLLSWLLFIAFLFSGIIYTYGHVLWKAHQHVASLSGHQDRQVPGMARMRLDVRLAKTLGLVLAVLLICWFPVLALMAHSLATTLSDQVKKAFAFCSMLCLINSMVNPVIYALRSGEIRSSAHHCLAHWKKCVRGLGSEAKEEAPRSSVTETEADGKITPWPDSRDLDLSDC
T1 sequence (P35367 whole entry): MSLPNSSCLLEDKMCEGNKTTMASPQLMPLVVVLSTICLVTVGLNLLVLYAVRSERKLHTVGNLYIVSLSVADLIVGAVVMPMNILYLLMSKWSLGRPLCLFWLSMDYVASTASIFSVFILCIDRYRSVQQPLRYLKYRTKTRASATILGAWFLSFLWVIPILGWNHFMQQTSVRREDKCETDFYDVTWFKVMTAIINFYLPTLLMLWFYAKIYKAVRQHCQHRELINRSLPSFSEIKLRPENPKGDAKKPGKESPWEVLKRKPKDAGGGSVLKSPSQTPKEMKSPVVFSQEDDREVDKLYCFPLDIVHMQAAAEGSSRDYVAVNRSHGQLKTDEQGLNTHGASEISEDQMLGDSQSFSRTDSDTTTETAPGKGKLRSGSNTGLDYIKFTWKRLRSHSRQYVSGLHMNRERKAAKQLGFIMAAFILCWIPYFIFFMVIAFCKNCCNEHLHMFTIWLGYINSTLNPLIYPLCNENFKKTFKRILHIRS
T11 sequence (P14416 1-414 isoform P14416-2): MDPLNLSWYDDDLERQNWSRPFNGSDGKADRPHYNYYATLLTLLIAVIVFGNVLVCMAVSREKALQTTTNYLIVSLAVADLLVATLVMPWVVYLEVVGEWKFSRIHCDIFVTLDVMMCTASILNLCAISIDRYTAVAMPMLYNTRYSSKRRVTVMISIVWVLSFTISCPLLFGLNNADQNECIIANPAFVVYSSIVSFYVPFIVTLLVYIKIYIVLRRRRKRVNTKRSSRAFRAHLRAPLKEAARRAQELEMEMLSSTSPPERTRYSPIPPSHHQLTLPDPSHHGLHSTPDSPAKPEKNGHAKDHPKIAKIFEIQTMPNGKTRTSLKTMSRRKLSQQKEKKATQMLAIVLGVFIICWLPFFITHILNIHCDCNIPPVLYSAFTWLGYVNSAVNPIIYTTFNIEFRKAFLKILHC
T10 sequence (P35372 whole entry): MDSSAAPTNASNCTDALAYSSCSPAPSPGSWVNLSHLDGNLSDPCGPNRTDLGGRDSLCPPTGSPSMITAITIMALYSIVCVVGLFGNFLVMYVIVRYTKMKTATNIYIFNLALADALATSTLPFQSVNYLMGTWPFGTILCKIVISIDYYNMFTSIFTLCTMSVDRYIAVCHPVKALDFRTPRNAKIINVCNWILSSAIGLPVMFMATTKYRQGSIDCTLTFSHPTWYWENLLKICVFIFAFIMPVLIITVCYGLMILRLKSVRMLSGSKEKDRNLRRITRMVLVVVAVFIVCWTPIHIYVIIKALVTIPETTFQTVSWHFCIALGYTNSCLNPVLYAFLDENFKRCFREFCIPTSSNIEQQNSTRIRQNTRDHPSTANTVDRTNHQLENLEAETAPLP
T3 sequence (Q92633 whole entry): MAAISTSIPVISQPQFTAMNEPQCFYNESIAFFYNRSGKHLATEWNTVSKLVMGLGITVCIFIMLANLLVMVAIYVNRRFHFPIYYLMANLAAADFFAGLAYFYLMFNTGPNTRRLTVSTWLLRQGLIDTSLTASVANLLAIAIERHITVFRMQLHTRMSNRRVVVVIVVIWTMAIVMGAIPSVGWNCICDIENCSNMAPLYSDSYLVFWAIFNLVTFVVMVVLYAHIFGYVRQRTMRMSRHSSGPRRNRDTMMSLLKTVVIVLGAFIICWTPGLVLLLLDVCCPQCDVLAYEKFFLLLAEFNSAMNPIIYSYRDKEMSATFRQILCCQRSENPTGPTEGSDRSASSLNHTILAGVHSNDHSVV
T8 sequence (Q9UBY5 whole entry): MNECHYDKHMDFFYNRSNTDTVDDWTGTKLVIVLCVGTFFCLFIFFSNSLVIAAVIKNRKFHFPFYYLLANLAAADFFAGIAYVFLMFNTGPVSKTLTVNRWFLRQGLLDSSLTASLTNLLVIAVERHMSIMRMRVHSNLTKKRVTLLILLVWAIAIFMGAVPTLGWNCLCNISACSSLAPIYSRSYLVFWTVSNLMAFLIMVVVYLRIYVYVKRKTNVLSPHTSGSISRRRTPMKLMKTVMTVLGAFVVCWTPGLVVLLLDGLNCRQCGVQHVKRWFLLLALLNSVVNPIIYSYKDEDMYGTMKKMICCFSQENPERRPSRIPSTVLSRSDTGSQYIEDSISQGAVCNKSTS
T4 sequence (P29371 whole entry): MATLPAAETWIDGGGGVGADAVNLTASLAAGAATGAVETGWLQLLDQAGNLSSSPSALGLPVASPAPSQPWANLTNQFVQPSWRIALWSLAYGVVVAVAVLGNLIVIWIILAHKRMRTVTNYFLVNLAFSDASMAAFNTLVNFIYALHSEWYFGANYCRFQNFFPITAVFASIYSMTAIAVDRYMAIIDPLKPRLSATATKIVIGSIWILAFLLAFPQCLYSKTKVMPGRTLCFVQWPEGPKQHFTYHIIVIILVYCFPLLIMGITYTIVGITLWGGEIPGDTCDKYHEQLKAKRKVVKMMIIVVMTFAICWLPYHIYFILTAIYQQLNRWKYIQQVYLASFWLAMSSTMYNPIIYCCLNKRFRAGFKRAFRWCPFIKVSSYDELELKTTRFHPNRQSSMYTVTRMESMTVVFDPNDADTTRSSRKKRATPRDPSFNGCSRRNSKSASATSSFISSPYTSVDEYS
T5 sequence (P30989 whole entry): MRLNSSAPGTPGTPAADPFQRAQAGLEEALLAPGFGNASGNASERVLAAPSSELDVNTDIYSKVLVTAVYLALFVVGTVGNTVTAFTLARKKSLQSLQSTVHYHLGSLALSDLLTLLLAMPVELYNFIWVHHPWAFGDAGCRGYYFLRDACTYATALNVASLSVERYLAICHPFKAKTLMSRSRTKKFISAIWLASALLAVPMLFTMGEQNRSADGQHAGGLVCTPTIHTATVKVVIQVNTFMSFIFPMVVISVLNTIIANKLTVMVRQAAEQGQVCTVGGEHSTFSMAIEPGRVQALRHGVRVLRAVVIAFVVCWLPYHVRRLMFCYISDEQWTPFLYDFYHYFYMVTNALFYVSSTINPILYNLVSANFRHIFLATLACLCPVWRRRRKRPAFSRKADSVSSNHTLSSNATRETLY
CYP450 1A2 (Homo sapiens), sequence (P11511 whole entry): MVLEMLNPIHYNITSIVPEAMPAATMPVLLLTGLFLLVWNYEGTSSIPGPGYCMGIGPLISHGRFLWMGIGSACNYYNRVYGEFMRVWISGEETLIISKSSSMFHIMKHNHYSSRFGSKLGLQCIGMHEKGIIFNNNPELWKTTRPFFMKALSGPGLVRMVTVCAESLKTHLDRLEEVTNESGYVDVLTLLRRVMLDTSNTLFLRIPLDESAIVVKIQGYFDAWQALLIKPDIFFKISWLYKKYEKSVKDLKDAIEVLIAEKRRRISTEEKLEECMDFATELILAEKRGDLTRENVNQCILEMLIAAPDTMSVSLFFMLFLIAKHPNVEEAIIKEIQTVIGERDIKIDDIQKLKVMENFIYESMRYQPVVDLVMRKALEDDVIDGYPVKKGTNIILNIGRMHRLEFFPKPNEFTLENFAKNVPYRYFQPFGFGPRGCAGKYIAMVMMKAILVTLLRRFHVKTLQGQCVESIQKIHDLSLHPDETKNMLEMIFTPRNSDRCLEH
T9 sequence (P21452 whole entry): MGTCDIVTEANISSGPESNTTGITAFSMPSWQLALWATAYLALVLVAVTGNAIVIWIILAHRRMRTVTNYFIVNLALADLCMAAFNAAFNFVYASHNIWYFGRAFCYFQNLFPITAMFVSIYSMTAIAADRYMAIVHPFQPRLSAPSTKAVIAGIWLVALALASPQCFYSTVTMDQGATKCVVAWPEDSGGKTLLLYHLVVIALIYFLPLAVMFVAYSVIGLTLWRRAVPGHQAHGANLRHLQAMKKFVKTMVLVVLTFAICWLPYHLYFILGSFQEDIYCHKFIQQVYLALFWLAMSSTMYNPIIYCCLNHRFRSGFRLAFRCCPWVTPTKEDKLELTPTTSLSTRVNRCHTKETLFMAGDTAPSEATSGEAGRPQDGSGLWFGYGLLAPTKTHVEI
T12 sequence (P41145 whole entry): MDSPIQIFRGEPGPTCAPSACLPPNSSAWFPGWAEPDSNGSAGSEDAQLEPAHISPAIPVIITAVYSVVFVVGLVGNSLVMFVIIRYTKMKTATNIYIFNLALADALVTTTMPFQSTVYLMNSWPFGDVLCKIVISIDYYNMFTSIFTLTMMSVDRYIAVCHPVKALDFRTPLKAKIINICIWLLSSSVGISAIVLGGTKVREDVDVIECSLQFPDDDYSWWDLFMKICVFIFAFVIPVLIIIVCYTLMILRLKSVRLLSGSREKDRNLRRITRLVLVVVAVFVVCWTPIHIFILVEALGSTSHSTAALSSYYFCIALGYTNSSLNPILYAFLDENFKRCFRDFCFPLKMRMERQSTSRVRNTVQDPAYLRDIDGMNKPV
T7 sequence (P25021 whole entry): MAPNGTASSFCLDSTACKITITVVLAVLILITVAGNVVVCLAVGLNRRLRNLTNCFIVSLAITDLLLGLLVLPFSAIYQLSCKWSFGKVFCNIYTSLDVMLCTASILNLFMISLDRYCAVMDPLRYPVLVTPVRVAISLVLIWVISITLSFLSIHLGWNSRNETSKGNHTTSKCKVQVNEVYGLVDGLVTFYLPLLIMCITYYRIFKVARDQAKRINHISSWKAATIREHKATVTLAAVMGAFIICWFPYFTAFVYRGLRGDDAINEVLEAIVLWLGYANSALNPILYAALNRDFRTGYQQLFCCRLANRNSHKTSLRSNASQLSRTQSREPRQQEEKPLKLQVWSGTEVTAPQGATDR

C[C@H](CO)NC(=O)c1cccc(/C=C\CCCC(=O)N(C)C)c1 [VSN16R]
Revertants per plate (WP2uvvA; First Mutation without Metabolic Stimulation, 17µg): 5.3 ± 0.6 | Revertants per plate (WP2uvvA; First Mutation without Metabolic Stimulation, 5000µg): 1.3 ± 1.2 | Revertants per plate (WP2uvvA; Second Mutation without Metabolic Stimulation, 17µg): 10.3 ± 6.7 | Revertants per plate (WP2uvvA; Second Mutation without Metabolic Stimulation, 5000µg): 8.0 ± 4.6 | Activity (H1): Negligible Activity | Activity (CB2; 10µM VSN16R): Negligible Activity | Binding to CB2 receptors (CB2; tested to 10 μM): did not bind | Activity (EDG2): Negligible Activity | Activity (α1(non-selective)): Negligible Activity | Activity (NK3): Negligible Activity | Activity (NT1): Negligible Activity | Activity (5-HT2A): Negligible Activity | Activity (H2): Negligible Activity | Faecal elimination (Pharmacokinetics in rats; [3]): approximately 1 % of the dose | Renal excretion (Pharmacokinetics in rats; [3]): less than 0.5 % of the dose | bioavailability (Pharmacokinetics in rats; in vivo, po, 5 mg·kg^−1 p.o., rat): 40% | half-life (Pharmacokinetics in rats; rat, plasma, po, 5 mg·kg^−1 p.o., rats, read-out: Elimination half‐life): 43 min | Activity (GABA (non-selective)): Negligible Activity | Activity (EDG7): Negligible Activity | Cmax ([1]; 1000 mg·kg^−1 p.o., read-out: Plasma level at Cmax): ≤ 368 µM | concentration at 30 min ([1]; read-out: VSN16R detected in plasma): 15 µM | concentration at 30 min ([1]; read-out: VSN16R detected in plasma (Mean ± SD)): 4907 ± 32.3 ng/mL | Activity (GABAA): Negligible Activity | Activity (Na+ channel (site 2)): Negligible Activity | Activity (GlyR): Negligible Activity | Activity (NK2): Negligible Activity | Activity (μ): Negligible Activity | Activity (D2S): Negligible Activity | IC50 (CYP450 3A7): > 10 µM | Activity (κ): Negligible Activity | IC50 [2]: > 10 µM
